Structures can show the parent of a compound that is named as a salt.

A short description of one assay: Binding affinity was measured as selectivity for sigma-1 site over muscarinic (M1) receptor in rat.
In the case of `COc1ccc2c(c1)[C@]13CCCC[C@@H]1[C@H](C2)N(C)CC3` [DEXTROMETHORPHAN], the Ki – broadly, the dissociation constant of the complex between target and ligand, obtained from inhibition or displacement – is 5.07 µM.

The nature of a further assay: Affinity at sigma-1 site by inhibition of [3H](+)-pentazocine (PENT) binding in guinea pig brain.
The compound `O=C(OCCCN1CCC(c2ccccc2)CC1)C1(c2ccc(Cl)cc2)CCCC1` [1-(4-Chloro-phenyl)-cyclopentanecarboxylic acid 3-(4-phenyl-piperidin-1-yl)-propyl ester; hydrochloride] registered a Ki of 1.5 nM.

Turning to `N#Cc1ccc(C2(C(=O)OCCN3CCC(c4ccccc4)CC3)CCCC2)cc1` [1-(4-Cyano-phenyl)-cyclopentanecarboxylic acid 2-(4-phenyl-piperidin-1-yl)-ethyl ester; hydrochloride], the Ki came to 1.3 nM.

`O=C(OCCN1CCN(c2ccccc2)CC1)C1(c2ccc(I)cc2)CCCC1` [1-(4-Iodo-phenyl)-cyclopentanecarboxylic acid 2-(4-phenyl-piperazin-1-yl)-ethyl ester; hydrochloride] showed a Ki of 23 nM.

In turn, `O=C(OCCN1CCN(c2ccccc2)CC1)C1(c2ccc(Cl)cc2)CCCC1` [1-(4-Chloro-phenyl)-cyclopentanecarboxylic acid 2-(4-phenyl-piperazin-1-yl)-ethyl ester; hydrochloride] had an inhibition constant Ki of 77 nM.

As for `O=C(OCCCN1CCC(c2ccccc2)CC1)C1(c2ccc([N+](=O)[O-])cc2)CCCC1` [1-(4-Nitro-phenyl)-cyclopentanecarboxylic acid 3-(4-phenyl-piperidin-1-yl)-propyl ester; hydrochloride], the Ki amounted to 0.27 nM.

Compound `O=C(OCCN1CCC(c2ccccc2)CC1)C1(c2ccc(Cl)cc2)CCCC1` [1-(4-Chloro-phenyl)-cyclopentanecarboxylic acid 2-(4-phenyl-piperidin-1-yl)-ethyl ester; hydrochloride] showed a Ki of 1.3 nM. Against the preceding compound, the Ki is about 4.8-fold higher.

`O=C(OCCCCN1CCC(c2ccccc2)CC1)C1(c2ccccc2)CCCC1` [1-Phenyl-cyclopentanecarboxylic acid 4-(4-phenyl-piperidin-1-yl)-butyl ester; hydrochloride]: the inhibitory constant (Ki) came out at 0.51 nM.

On to `O=C(OCCN1CCN(c2ccccc2)CC1)C1(c2ccccc2)CCCC1` [1-Phenyl-cyclopentanecarboxylic acid 2-(4-phenyl-piperazin-1-yl)-ethyl ester; hydrochloride], for which the inhibitory constant (Ki) was 63 nM.

The compound `COc1ccc(C2(C(=O)OCCN3CCC(c4ccccc4)CC3)CCCC2)cc1` [1-(4-Methoxy-phenyl)-cyclopentanecarboxylic acid 2-(4-phenyl-piperidin-1-yl)-ethyl ester; hydrochloride] displayed a Ki of 1 nM.

Compound `O=C(OCCN1CCN(c2ccccc2)CC1)C1(c2ccc([N+](=O)[O-])cc2)CCCC1` [1-(4-Nitro-phenyl)-cyclopentanecarboxylic acid 2-(4-phenyl-piperazin-1-yl)-ethyl ester; hydrochloride] had a Ki of 2.8 nM.

Turning to `O=C(OCCN1CCC(c2ccccc2)CC1)C1(c2ccc(I)cc2)CCCC1` [1-(4-Iodo-phenyl)-cyclopentanecarboxylic acid 2-(4-phenyl-piperidin-1-yl)-ethyl ester; hydrochloride], the Ki was 1.4 nM.

In turn, `O=C(OCCCCCCN1CCC(c2ccccc2)CC1)C1(c2ccccc2)CCCC1` [1-Phenyl-cyclopentanecarboxylic acid 6-(4-phenyl-piperidin-1-yl)-hexyl ester; hydrochloride] showed a Ki of 1.2 nM.

With `O=C(OCCN1CCC(c2ccccc2)CC1)C1(c2ccccc2)CCCC1` [1-Phenyl-cyclopentanecarboxylic acid 2-(4-phenyl-piperidin-1-yl)-ethyl ester; hydrochloride], the affinity corresponds to a Ki of 4 nM.

For `COc1ccc(C2(C(=O)OCCCN3CCC(c4ccccc4)CC3)CCCC2)cc1` [1-(4-Methoxy-phenyl)-cyclopentanecarboxylic acid 3-(4-phenyl-piperidin-1-yl)-propyl ester; hydrochloride], the Ki amounted to 0.65 nM.

With `O=C(OCCCN1CCC(c2ccccc2)CC1)C1(c2ccc(I)cc2)CCCC1` [1-(4-Iodo-phenyl)-cyclopentanecarboxylic acid 3-(4-phenyl-piperidin-1-yl)-propyl ester; hydrochloride], the Ki is 0.88 nM. This Ki and that of the compound before are within 1.5-fold of each other.
